This note sets out measurements from ChEMBL document CHEMBL3797055, “Glabridin-chalcone hybrid molecules: drug resistance reversal agent against clinical isolates of methicillin-resistant Staphylococcus aureus” (Medchemcomm, 2016).

Format in all cases: functional
In experiment [1] the test system is Staphylococcus aureus. Nature of the experiment: Antibacterial activity against clinical isolates of methicillin-resistant Staphylococcus aureus P4423 by broth microdilution assay.
Experiment [2] deals with Staphylococcus aureus. Nature of the experiment: Antibacterial activity against clinical isolates of methicillin-resistant Staphylococcus aureus P4650 by broth microdilution assay.
For experiment [3], the system named is Staphylococcus aureus. The experiment can be described thus: Antibacterial activity against clinical isolates of methicillin-resistant Staphylococcus aureus ST10760 by broth microdilution assay.
For experiment [4], the system named is Staphylococcus aureus. Nature of the experiment: Antibacterial activity against Staphylococcus aureus MTCC 96 by broth microdilution assay.
The test system of experiment [5] is Staphylococcus aureus. The experiment can be described thus: Antibacterial activity against clinical isolates of methicillin-resistant Staphylococcus aureus ST10342 by broth microdilution assay.
In experiment [6] the test system is Staphylococcus aureus. Nature of the experiment: Antibacterial activity against clinical isolates of methicillin-resistant Staphylococcus aureus ST2071 by broth microdilution assay.
The subject of experiment [7] is Staphylococcus aureus. The experiment can be described thus: Antibacterial activity against clinical isolates of methicillin-resistant Staphylococcus aureus P4629 by broth microdilution assay.

SMILES strings stand for the structures. Values after ≈ are worked out from the molar mass of the structure shown. Bounds are passed on as bounds.

In the case of `COc1ccc([C@@H]2COc3c(cc(/C=C/C(=O)c4ccccc4OC)c4c3C=CC(C)(C)O4)C2)c(OC)c1`, the MIC in experiment [1] amounted to 50 µg/mL (≈ 97.5 µM); in experiment [2], 25 µg/mL (≈ 48.8 µM); in experiment [3], 50 µg/mL (≈ 97.5 µM); in experiment [4] it was 25 µg/mL (≈ 48.8 µM); in experiment [5], 50 µg/mL (≈ 97.5 µM); in experiment [6], 50 µg/mL (≈ 97.5 µM). This compound gave an MIC in experiment [7] of 25 µg/mL (≈ 48.8 µM).

Turning to `COc1cc(OC)c([C@@H]2COc3c(ccc4c3C=CC(C)(C)O4)C2)cc1/C=C/C(=O)c1cc(OC)c(OC)c(OC)c1`, the MIC in experiment [1], in experiment [2], in experiment [3], in experiment [4], in experiment [5] and in experiment [6] was 25 µg/mL (≈ 43.7 µM) throughout. The compound also came in with an MIC in experiment [7] of 25 µg/mL (≈ 43.7 µM).

On to `COc1cc(OC)c([C@@H]2COc3c(ccc4c3C=CC(C)(C)O4)C2)cc1/C=C/C(=O)c1ccc(OC)c(OC)c1`, for which the MIC in experiment [1] was greater than 100 µg/mL; in experiment [2], greater than 100 µg/mL; in experiment [3] it was greater than 100 µg/mL; in experiment [4], 100 µg/mL (≈ 184 µM); in experiment [5], greater than 100 µg/mL; in experiment [6], greater than 100 µg/mL. The compound further gave an MIC in experiment [7] greater than 100 µg/mL.

With `COc1cc(OC)c([C@@H]2COc3c(ccc4c3C=CC(C)(C)O4)C2)cc1/C=C/C(=O)c1ccccc1OC`, the minimum inhibitory concentration (MIC) in experiment [1], in experiment [2], in experiment [3], in experiment [4], in experiment [5] and in experiment [6] was greater than 100 µg/mL each time. This compound registered an MIC in experiment [7] greater than 100 µg/mL.

Regarding `CCn1cc(C(=O)O)c(=O)c2cc(F)c(N3CCNCC3)cc21` [NORFLOXACIN], the MIC in experiment [1] turned out to be 250 µg/mL (≈ 783 µM); in experiment [2] it was 125 µg/mL (≈ 391 µM); in experiment [3] it was 500 µg/mL (≈ 1570 µM); in experiment [4] it was 1.56 µg/mL (≈ 4.89 µM); in experiment [5], 250 µg/mL (≈ 783 µM); in experiment [6], 500 µg/mL (≈ 1570 µM). This compound displayed an MIC in experiment [7] of 500 µg/mL (≈ 1570 µM).

For `COc1ccc(C(=O)/C=C/c2cc([C@@H]3COc4c(ccc5c4C=CC(C)(C)O5)C3)c(OC)cc2OC)c(OC)c1`, the MIC in experiment [1] turned out to be 25 µg/mL (≈ 46.1 µM); in experiment [2], 12.5 µg/mL (≈ 23 µM); in experiment [3], 25 µg/mL (≈ 46.1 µM); in experiment [4], 12.5 µg/mL (≈ 23 µM); in experiment [5], 25 µg/mL (≈ 46.1 µM); in experiment [6], 25 µg/mL (≈ 46.1 µM). This compound registered an MIC in experiment [7] of 25 µg/mL (≈ 46.1 µM).

With `COc1ccc(C(=O)/C=C/c2cc3c(c4c2OC(C)(C)C=C4)OC[C@@H](c2ccc(OC)cc2OC)C3)c(OC)c1`, the MIC in experiment [1], in experiment [2], in experiment [3], in experiment [4], in experiment [5] and in experiment [6] was greater than 100 µg/mL throughout. Besides, the MIC in experiment [7] was greater than 100 µg/mL.

`COc1ccc(C(=O)/C=C/c2cc([C@@H]3COc4c(cc(/C=C/C(=O)c5ccc(OC)cc5)c5c4C=CC(C)(C)O5)C3)c(OC)cc2OC)cc1`: the MIC was greater than 100 µg/mL in experiment [1]; greater than 100 µg/mL in experiment [2]; greater than 100 µg/mL in experiment [3]; 100 µg/mL (≈ 149 µM) in experiment [4]; greater than 100 µg/mL in experiment [5]; greater than 100 µg/mL in experiment [6]. In addition, the minimum inhibitory concentration (MIC) in experiment [7] is greater than 100 µg/mL.

Regarding `COc1ccc([C@@H]2COc3c(ccc4c3C=CC(C)(C)O4)C2)c(OC)c1`, the MIC in experiment [1], in experiment [2], in experiment [3], in experiment [4], in experiment [5] and in experiment [6] was greater than 100 µg/mL throughout. In addition, in experiment [7], the MIC is greater than 100 µg/mL.

Turning to `COc1ccc([C@@H]2COc3c(cc(/C=C/C(=O)c4cc(OC)c(OC)c(OC)c4)c4c3C=CC(C)(C)O4)C2)c(OC)c1`, the MIC in experiment [1], in experiment [2], in experiment [3], in experiment [4], in experiment [5] and in experiment [6] was 25 µg/mL (≈ 43.7 µM) throughout. The same compound showed a minimum inhibitory concentration (MIC) in experiment [7] of 25 µg/mL (≈ 43.7 µM).

Turning to `COc1ccc([C@@H]2COc3c(cc(C=O)c4c3C=CC(C)(C)O4)C2)c(OC)c1`, the MIC in experiment [1], in experiment [2], in experiment [3], in experiment [4], in experiment [5] and in experiment [6] was greater than 100 µg/mL throughout. This compound also registered an MIC in experiment [7] greater than 100 µg/mL.

As for `COc1cc(OC)c([C@@H]2COc3c(cc(C=O)c4c3C=CC(C)(C)O4)C2)cc1C=O`, the MIC in experiment [1], in experiment [2], in experiment [3], in experiment [4], in experiment [5] and in experiment [6] was greater than 100 µg/mL in each case. In experiment [7], this compound had an MIC greater than 100 µg/mL.

For the compound `COc1cc(OC)c([C@@H]2COc3c(ccc4c3C=CC(C)(C)O4)C2)cc1/C=C/C(=O)c1ccc[nH]1`, the MIC in experiment [1] came out at 50 µg/mL (≈ 106 µM); in experiment [2] it was 50 µg/mL (≈ 106 µM); in experiment [3], 50 µg/mL (≈ 106 µM); in experiment [4] it was 25 µg/mL (≈ 53 µM); in experiment [5] it was 50 µg/mL (≈ 106 µM); in experiment [6], 50 µg/mL (≈ 106 µM). In experiment [7], this compound yielded an MIC of 50 µg/mL (≈ 106 µM).

On to `COc1ccc(C(=O)/C=C/c2cc([C@@H]3COc4c(cc(/C=C/C(=O)c5ccc(OC)cc5OC)c5c4C=CC(C)(C)O5)C3)c(OC)cc2OC)c(OC)c1`, for which the MIC in experiment [1], in experiment [2], in experiment [3], in experiment [4], in experiment [5] and in experiment [6] was 50 µg/mL (≈ 68.2 µM) in each case. The same compound returned an MIC in experiment [7] of 50 µg/mL (≈ 68.2 µM).

Take `COc1cc(OC)c([C@@H]2COc3c(cc(/C=C/C(=O)c4ccc[nH]4)c4c3C=CC(C)(C)O4)C2)cc1/C=C/C(=O)c1ccc[nH]1`: the MIC in experiment [1], in experiment [2], in experiment [3], in experiment [4], in experiment [5] and in experiment [6] was 50 µg/mL (≈ 84.6 µM) each time. In experiment [7], the MIC came out at 50 µg/mL (≈ 84.6 µM).

For the compound `COc1ccc([C@@H]2COc3c(cc(/C=C/C(=O)c4ccc[nH]4)c4c3C=CC(C)(C)O4)C2)c(OC)c1`, the MIC is greater than 100 µg/mL in experiment [1]; greater than 100 µg/mL in experiment [2]; greater than 100 µg/mL in experiment [3]; 100 µg/mL (≈ 212 µM) in experiment [4]; greater than 100 µg/mL in experiment [5]; greater than 100 µg/mL in experiment [6]. The MIC in experiment [7] was greater than 100 µg/mL.

Take `COc1cccc(C(=O)/C=C/c2cc3c(c4c2OC(C)(C)C=C4)OC[C@@H](c2ccc(OC)cc2OC)C3)c1`: the MIC in experiment [1], in experiment [2], in experiment [3], in experiment [4], in experiment [5] and in experiment [6] was 25 µg/mL (≈ 48.8 µM) each time. The MIC in experiment [7] worked out at 25 µg/mL (≈ 48.8 µM).

Consider `COc1cc(OC)c([C@@H]2COc3c(cc(/C=C/C(=O)c4ccccc4OC)c4c3C=CC(C)(C)O4)C2)cc1/C=C/C(=O)c1ccccc1OC`, for which the MIC in experiment [1] was determined as 100 µg/mL (≈ 149 µM); in experiment [2], 100 µg/mL (≈ 149 µM); in experiment [3] it was 100 µg/mL (≈ 149 µM); in experiment [4], 50 µg/mL (≈ 74.3 µM); in experiment [5] it was 100 µg/mL (≈ 149 µM); in experiment [6], 100 µg/mL (≈ 149 µM). The same compound gave an MIC in experiment [7] of 100 µg/mL (≈ 149 µM).

On to `COc1cc(OC)c([C@@H]2COc3c(cc(/C=C/C(=O)c4ccccc4)c4c3C=CC(C)(C)O4)C2)cc1/C=C/C(=O)c1ccccc1`, for which the MIC in experiment [1], in experiment [2], in experiment [3], in experiment [4], in experiment [5] and in experiment [6] was 25 µg/mL (≈ 40.8 µM) throughout. The same compound came in with an MIC in experiment [7] of 25 µg/mL (≈ 40.8 µM).
